Results published in US4950669A, “Methods and compositions for promoting growth of animals” (priority 1987, dated 1990).

Assays:
[1] = organ weight variations in the rat after per os treatment; format: in vivo; conditions: 300 mg/kg per os
[2] = 44-day floor pen study in chickens (Example XIV); format: in vivo
Experimental: A 44-day floor pen study was conducted in which n-morpholinyl-β-benzoyl-propionamide was administered in chicken feed at concentrations of 1 ppm, 2.5 ppm, 5 ppm, 10 ppm, 20 ppm, 40 ppm and 60 ppm. One group of controls received no medication in its feed, while a second control group received Bacitracin MD in its feed at 30 g/ton. Birds were fed ad libitum. There were 5 replications per treatment, 50 birds per replication. Birds were weighed to determine weight gain and feed-to-gain ration after 35 days and 44 days.

[3] = 28-day chicken growth study, feed or i.m. injection (Example XII); format: in vivo, chickens
Experimental: Portions of N-morpholinyl-β-benzoyl-propionamide were admixed with chicken feed at 1 mg/kg and a 2 mg/kg, respectively. Another portion was formulated into an injectable formulation at a concentration of 2% in polyethylene glycol. The N-morpholinyl-β-benzoylpropionamide was then administered to chickens, either by i.m. injection or in feed, over 28-day period. One group of controls received no medication, while another group of controls received Bacitracin MD in its feed at 30 g/ton. Those chickens receiving intramuscular injections were injected once a week with a dosage of either 1 mg/kg or 2 mg/kg, based on body weight. Birds were weighed on days 0, 14 and 28.

[4] = battery study in chickens (Example XVI); format: in vivo; conditions: for Mortality: unmedicated 1.1
Experimental: A battery study was conducted in which N-morpholinyl-β-benzoyl-propionamide was administered to chickens in their feed at levels at 2.5 ppm and 5.0 ppm. The control group was unmedicated. Each medicated treatment had 10 replications of 8 birds per replication, with non-medicated controls having 20 replications of 8 birds per replication. Birds were weighed to determine weight gain and feed-to-gain ratio on days 7, 14 and 21.

[5] = six-week swine feeding study, weanling barrows (Example XI); format: in vivo; conditions: six weeks; for daily feed (rel.) / Avg. daily gain (rel.): control = 100; for Avg. daily gain / Avg. daily gain (rel.): swine feed
Experimental: N-morpholinyl-β-benzoyl-propionamide was admixed with swine feed at 20 ppm and at 60 ppm. A six-week feeding study was conducted using weanling barrows. Pigs averaging 8.80 kg initially (4-5 weeks of age) were housed four pigs per pen. Test diets were fed ad libitum throughout the six-week study. Average final weight for all pigs was 27.33 kg.

[6] = 44-day floor-pen study in chickens (Example XV); format: in vivo; conditions: 44 days
Text: There were 60 chickens per replication, 3 replications per treatment. One group of controls was unmedicated, while a second control group received Bacitracin in the feed at 30 g/ton.

[7] = Injection 1 mg/kg i.m. once a week, Day 14
[8] = Injection 1 mg/kg i.m. once a week, Day 28
[9] = Injection 2 mg/kg i.m. once a week, Day 14
[10] = Injection 2 mg/kg i.m. once a week, Day 28

O=C(CCC(=O)N1CCOCC1)c1ccccc1 [NMBP, N-morpholinyl-β-benzoyl-propionamide]
organ weight variation, suprarenal gland ([1]; controls +0.011): +0.011% | organ weight variation, heart ([1]; controls +0.257): +0.304% | organ weight variation, lung ([1]; controls +0.598): +0.675% | organ weight variation, kidney ([1]; controls +0.65): +0.71% | organ weight variation, liver ([1]; controls +3.22): +3.63% | F/G ([2]; feed 1 ppm, Day 35): 1.60 | Weight Gain ([2]; feed 1 ppm, Day 35): 1379 g | F/G ([2]; feed 1 ppm, Day 44): 1.72 | Weight Gain ([2]; feed 1 ppm, Day 44): 1917 g | F/G ([2]; feed 2.5 ppm, Day 35): 1.55 | Weight Gain ([2]; feed 2.5 ppm, Day 35): 1431 g | F/G ([2]; feed 2.5 ppm, Day 44): 1.69 | Weight Gain ([2]; feed 2.5 ppm, Day 44): 1961 g | F/G ([2]; feed 5 ppm, Day 35): 1.61 | Weight Gain ([2]; feed 5 ppm, Day 35): 1381 g | F/G ([2]; feed 5 ppm, Day 44): 1.72 | Weight Gain ([2]; feed 5 ppm, Day 44): 1929 g | F/G ([2]; feed 10 ppm, Day 35): 1.60 | Weight Gain ([2]; feed 10 ppm, Day 35): 1356 g | F/G ([2]; feed 10 ppm, Day 44): 1.74 | Weight Gain ([2]; feed 10 ppm, Day 44): 1883 g | F/G ([2]; feed 20 ppm, Day 35): 1.61 | Weight Gain ([2]; feed 20 ppm, Day 35): 1364 g | F/G ([2]; feed 20 ppm, Day 44): 1.72 | Weight Gain ([2]; feed 20 ppm, Day 44): 1901 g | F/G ([2]; feed 40 ppm, Day 35): 1.63 | Weight Gain ([2]; feed 40 ppm, Day 35): 1334 g | F/G ([2]; feed 40 ppm, Day 44): 1.72 | Weight Gain ([2]; feed 40 ppm, Day 44): 1898 g | F/G ([2]; feed 60 ppm, Day 35): 1.57 | Weight Gain ([2]; feed 60 ppm, Day 35): 1334 g | F/G ([2]; feed 60 ppm, Day 44): 1.72 | Weight Gain ([2]; feed 60 ppm, Day 44): 1875 g | Average Weight ([3]; Feed 1 mg/kg, Day 0 (baseline)): 98.9 g | Average Weight ([3]; Feed 1 mg/kg, Day 14): 462.8 g | Feed Conversion ([3]; Feed 1 mg/kg, Day 14): 1.38 | Weight Gain ([3]; Feed 1 mg/kg, Day 14): 363.9 g | Average Weight ([3]; Feed 1 mg/kg, Day 28): 947.6 g | Feed Conversion ([3]; Feed 1 mg/kg, Day 28): 1.64 | Weight Gain ([3]; Feed 1 mg/kg, Day 28): 848.7 g | Average Weight ([3]; Feed 2 mg/kg, Day 0 (baseline)): 98.5 g | Average Weight ([3]; Feed 2 mg/kg, Day 14): 474.3 g | Feed Conversion ([3]; Feed 2 mg/kg, Day 14): 1.38 | Weight Gain ([3]; Feed 2 mg/kg, Day 14): 375.8 g | Average Weight ([3]; Feed 2 mg/kg, Day 28): 1013.5 g | Feed Conversion ([3]; Feed 2 mg/kg, Day 28): 1.56 | Weight Gain ([3]; Feed 2 mg/kg, Day 28): 915.0 g | Average Weight ([3]; Injection 1 mg/kg i.m. once a week, Day 0 (baseline)): 98.7 g | Average Weight [3, 7]: 460.6 g | Feed Conversion [3, 7]: 1.37 | Weight Gain [3, 7]: 361.9 g | Average Weight [3, 8]: 938.2 g | Feed Conversion [3, 8]: 1.61 | Weight Gain [3, 8]: 839.5 g | Average Weight ([3]; Injection 2 mg/kg i.m. once a week, Day 0 (baseline)): 98.6 g | Average Weight [3, 9]: 456.3 g | Feed Conversion [3, 9]: 1.38 | Weight Gain [3, 9]: 357.7 g | Average Weight [3, 10]: 971.4 g | Feed Conversion [3, 10]: 1.56 | Weight Gain [3, 10]: 872.8 g | Feed Conversion ([4]; feed 2.5 ppm, D + 7): 1.67 | Weight Gain ([4]; feed 2.5 ppm, D + 7): 256 g | Feed Conversion ([4]; feed 2.5 ppm, D + 14): 1.98 | Weight Gain ([4]; feed 2.5 ppm, D + 14): 526 g | Feed Conversion ([4]; feed 2.5 ppm, D + 21): 1.70 | Weight Gain ([4]; feed 2.5 ppm, D + 21): 1075 g | Mortality ([4]; feed 2.5 ppm): 1.4 | Feed Conversion ([4]; feed 5.0 ppm, D + 7): 1.65 | Weight Gain ([4]; feed 5.0 ppm, D + 7): 262 g | Feed Conversion ([4]; feed 5.0 ppm, D + 14): 2.02 | Weight Gain ([4]; feed 5.0 ppm, D + 14): 523 g | Feed Conversion ([4]; feed 5.0 ppm, D + 21): 1.71 | Weight Gain ([4]; feed 5.0 ppm, D + 21): 1027 g | Mortality ([4]; feed 5.0 ppm): .8 | daily feed ([5]; 20 ppm): 1.022 kg | daily feed (rel.) ([5]; 20 ppm): 107 | daily feed ([5]; 60 ppm): 0.96 kg | daily feed (rel.) ([5]; 60 ppm): 101 | Avg. daily gain ([5]; 20 ppm): 0.45 kg | Avg. daily gain (rel.) ([5]; 20 ppm): 108 | Avg. daily gain ([5]; 60 ppm): 0.42 kg | Avg. daily gain (rel.) ([5]; 60 ppm): 100 | Average Live Bird Weight ([6]; feed 1.0 ppm): 2.13 kg | Feed Conversion ([6]; feed 1.0 ppm): 1.72 | Average Live Bird Weight ([6]; feed 2.5 ppm): 2.14 kg | Feed Conversion ([6]; feed 2.5 ppm): 1.73 | Average Live Bird Weight ([6]; feed 5 ppm): 2.08 kg | Feed Conversion ([6]; feed 5 ppm): 1.75 | Average Live Bird Weight ([6]; feed 10 ppm): 2.14 kg | Feed Conversion ([6]; feed 10 ppm): 1.72 | Average Live Bird Weight ([6]; feed 20 ppm): 2.12 kg | Feed Conversion ([6]; feed 20 ppm): 1.72 | Average Live Bird Weight ([6]; feed 40 ppm): 2.10 kg | Feed Conversion ([6]; feed 40 ppm): 1.75 | Average Live Bird Weight ([6]; feed 60 ppm): 2.14 kg | Feed Conversion ([6]; feed 60 ppm): 1.75
